Reference: publication PMC3353944, “BC4707 Is a Major Facilitator Superfamily Multidrug Resistance Transport Protein from Bacillus cereus Implicated in Fluoroquinolone Tolerance” (PLoS ONE, 2012)

Molecular target: T1, BC4707 (Bacillus cereus, UniProt Q816V8)
T1 construct: gene BC_4707; full-length with RGSHis6 tag (kept), expressed from pTTQ18 (pBC4707) in E. coli DH5alpha delta-acrAB
Experiment: norfloxacin accumulation assay, fluorescence of cell extracts vs empty-vector cells
Assay type: cell-based
Details: E. coli DH5alpha delta-acrAB, 100 uM norfloxacin, 20 mM glucose, pH 7.0; CCCP (100 uM) added at 15 min

T1 sequence (Q816V8 entry or part of it): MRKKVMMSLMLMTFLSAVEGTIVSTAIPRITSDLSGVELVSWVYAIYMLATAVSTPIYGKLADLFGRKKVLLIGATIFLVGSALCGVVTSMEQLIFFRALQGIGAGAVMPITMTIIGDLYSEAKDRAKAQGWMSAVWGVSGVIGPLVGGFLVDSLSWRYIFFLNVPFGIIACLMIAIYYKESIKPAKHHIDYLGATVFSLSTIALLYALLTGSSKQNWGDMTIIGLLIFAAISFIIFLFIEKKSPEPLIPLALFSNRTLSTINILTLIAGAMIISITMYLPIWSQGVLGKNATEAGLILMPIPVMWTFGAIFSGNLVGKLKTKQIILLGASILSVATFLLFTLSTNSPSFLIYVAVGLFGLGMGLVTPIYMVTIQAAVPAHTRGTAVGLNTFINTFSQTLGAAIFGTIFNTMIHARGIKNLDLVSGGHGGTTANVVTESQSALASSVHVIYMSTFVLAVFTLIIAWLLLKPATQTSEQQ

Q: With CCn1cc(C(=O)O)c(=O)c2cc(F)c(N3CCNCC3)cc21 [norfloxacin] as the compound, how does the “norfloxacin accumulation assay, fluorescence of cell extracts vs empty-vector ce” value read?
A: Its value is “indicating that the presence of BC4707-RGSHis6 prevents accumulation of norfloxacin in the cells”.
